# Where “and” joins values, the source holds several entries; their conditions need not be identical. Identical values can stand only once.
# Columns and labels:
# BclXL–LD3 interaction = BclXL–LD3 interaction (Homo sapiens, UniProt Q07817); test: SPR drug competition assay, BclXL–LD3; format: binding; conditions: for Normalization of Response units / Response units: BclXL, Supp Fig 2d
# Bcl2–LD3 interaction = Bcl2–LD3 interaction (Homo sapiens, UniProt P10415); test: SPR drug competition assay, Bcl2–LD3; format: binding; conditions: Bcl2, Supp Fig 2d
# Experimental: Drug IC50 values for disrupting heterodimers were measured on a Biacore 8K device. A 5 µM portion of analyte was mixed with 10 µM of BclXL or Bcl2 inhibitors according to the analyte. The mixtures of analyte and drug were injected onto the LD3 immobilized channel.
# (§1) Binding affinities of SPR drug competition assays were calculated using three-parameter nonlinear regression in GraphPad Prism (v.8.3.0). Representative data of cell assays are presented as individual values and mean values (bars). n = 3 refers to biological replicates. All IC50 or EC50 values of cell assays reported were calculated using four-parameter nonlinear regression ± s.d. Bandpass features of cutoff concentrations and Bandwidth90% were estimated based on the curve fitted using bell-shaped curve nonlinear regression in GraphPad Prism (v.8.3.0). […]
# This assay is designed to test if the drug of interest can specifically disrupt the
# interaction between LD3 and BclXL/Bcl2. The drug-receptors (Bcl2, BclXL) are immobilized on the
# different channels of the sensor chip, then the binding sites are saturated with LD3. […]
# [1] = target: GEMS with the dual-drug-controlled (A-1155463, venetoclax) switch (Bcl2 and BclXL–LD3) in HEK293T cells (Homo sapiens, UniProt P10415); test: GEMS SEAP reporter assay, dual-drug-controlled (A-1155463, venetoclax) switch; format: cell-based; conditions: for SEAP (U/L): Figure 2c, OFF-phase
# Text: In the first step, we sought to construct a dual-drug-controlled switch to test whether the ON and OFF switching processes can be combined in our receptor architecture. We used Bcl2 and BclXL as the orthogonal drug receptors, which interact with the LD3 protein and respond to their own specific inhibitors. In such a setting, the dual-drug-controlled switch will turn ON in response to one drug and OFF in response to the other, thus mimicking bandpass filtering behavior (Supplementary Fig. 1d). […] To test the switch behavior, we employed the generalizable extracellular molecule sensor (GEMS) platform, which senses extracellular molecules and thus regulates cell surface signaling pathways (Fig. 2a). This receptor platform is based on a mutated EpoR extracellular and transmembrane domain fused to an IL-6RB intracellular domain. Dimerization of EpoR extracellular domains is controlled by N-terminally fused inducible dimerization domains, which drive IL-6RB activation and STAT3 signaling. The Bcl2 and BclXL–LD3 complexes were fused to the extracellular EpoR domains. […] The dimerization of Bcl2 and LD3 causes EpoR extracellular domain dimerization and triggers JAK/STAT3 signaling. Active STAT3 drives the expression of a reporter protein (secreted alkaline phosphatase (SEAP)) controlled by a STAT3-dependent promoter.
# (§2) HEK293T cells were seeded in a 96-well plate 24 h before transfection. The transfection mix in each well consisted of 3 ng of constitutive human CMV promoter driven mammalian STAT3 expression vector (PhCMV-STAT3-pA), 30 ng of STAT3-induced reporter expression (OStat3-PhCMVmin-SEAP-pA) and 50 ng of expression vectors for each GEMS receptor chain (PSV40-IgK-(drughigh receptor)-EpoRm-IL-6RBm-pA and PSV40-IgK-(druglow receptor-GGGGSX3-LD3)-EpoRm-IL-6RBm-pA). For the specific drughigh receptor and druglow receptor used in the different cellular assays, they are indicated as wild type or with mutations. Then, plasmid DNA was mixed with 50 μl opti-MEM (Thermo Fisher) and 600 ng of polyethyleneimine (Polysciences, catalog no. 24765-1). For drug treatment experiments, drugs were added 12 h post-transfection and incubated with cells for 24 h before the SEAP reporter detection assay.
# (§3) SEAP activity (U l^−1) in cell culture supernatants was quantified by kinetic measurements at 405 nm (1 minute per measurement for 30 cycles) of absorbance increase due to phosphatase-mediated hydrolysis of para-nitrophenyl phosphate (pNPP).
# Binding affinities of SPR drug competition assays were calculated using three-parameter nonlinear regression in GraphPad Prism (v.8.3.0). Representative data of cell assays are presented as individual values and mean values (bars). n = 3 refers to biological replicates. All IC50 or EC50 values of cell assays reported were calculated using four-parameter nonlinear regression ± s.d. Bandpass features of cutoff concentrations and Bandwidth90% were estimated based on the curve fitted using bell-shaped curve nonlinear regression in GraphPad Prism (v.8.3.0).
# [2] = target: GEMS with the dual-drug-controlled (venetoclax, A-1155463) switch (BclXL and Bcl2–LD3) in HEK293T cells (Homo sapiens, UniProt P10415); test: GEMS SEAP reporter assay, dual-drug-controlled (venetoclax, A-1155463) switch; format: cell-based
# Experimental: as §2, §3, §1
# Bcl2 = conditions: cited from earlier work
# Sequence of Bcl2–LD3 interaction (P10415 1-207 limits assumed): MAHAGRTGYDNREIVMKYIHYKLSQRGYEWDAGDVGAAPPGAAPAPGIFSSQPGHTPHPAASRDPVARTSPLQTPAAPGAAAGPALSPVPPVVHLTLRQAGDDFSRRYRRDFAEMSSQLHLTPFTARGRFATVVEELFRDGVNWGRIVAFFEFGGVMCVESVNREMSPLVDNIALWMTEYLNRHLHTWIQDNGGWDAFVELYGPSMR
# Sequence of BclXL–LD3 interaction (Q07817 1-209 limits assumed): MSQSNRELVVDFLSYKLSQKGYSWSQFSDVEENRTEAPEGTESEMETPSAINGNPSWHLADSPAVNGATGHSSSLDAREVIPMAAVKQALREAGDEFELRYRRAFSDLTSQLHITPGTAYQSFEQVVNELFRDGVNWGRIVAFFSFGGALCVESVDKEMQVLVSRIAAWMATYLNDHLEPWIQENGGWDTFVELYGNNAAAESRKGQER
# Sequence of GEMS with the dual-drug-controlled (A-1155463, venetoclax) switch (Bcl2 and BclXL–LD3) in HEK293T cells (Q07817 whole entry): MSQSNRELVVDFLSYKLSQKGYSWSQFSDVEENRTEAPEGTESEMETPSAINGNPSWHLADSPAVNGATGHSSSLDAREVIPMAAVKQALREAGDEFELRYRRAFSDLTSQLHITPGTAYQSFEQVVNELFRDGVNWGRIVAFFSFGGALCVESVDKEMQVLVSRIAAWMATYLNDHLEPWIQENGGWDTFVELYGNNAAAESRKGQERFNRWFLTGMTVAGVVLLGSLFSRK
# Sequence of GEMS with the dual-drug-controlled (A-1155463, venetoclax) switch (Bcl2 and BclXL–LD3) in HEK293T cells (P10415 whole entry): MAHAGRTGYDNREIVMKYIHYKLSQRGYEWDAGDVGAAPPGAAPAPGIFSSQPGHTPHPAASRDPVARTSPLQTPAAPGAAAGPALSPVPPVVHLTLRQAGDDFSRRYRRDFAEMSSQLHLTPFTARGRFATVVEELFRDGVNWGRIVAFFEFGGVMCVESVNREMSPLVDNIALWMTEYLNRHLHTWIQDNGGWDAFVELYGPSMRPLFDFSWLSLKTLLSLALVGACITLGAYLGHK
# Sequence of GEMS with the dual-drug-controlled (venetoclax, A-1155463) switch (BclXL and Bcl2–LD3) in HEK293T cells (P10415 whole entry): as above
# Sequence of GEMS with the dual-drug-controlled (venetoclax, A-1155463) switch (BclXL and Bcl2–LD3) in HEK293T cells (Q07817 whole entry, further chain): as the sequence (Q07817 whole entry) above
structure (smiles),measurement,setting,value
CC1(C)CCC(CN2CCN(c3ccc(C(=O)NS(=O)(=O)c4ccc(NCC5CCOCC5)c([N+](=O)[O-])c4)c(Oc4cnc5[nH]ccc5c4)c3)CC2)=C(c2ccc(Cl)cc2)C1 [Venetoclax],Normalization of Response units,BclXL–LD3 interaction; V 0.01,100.685
same,Response units,BclXL–LD3 interaction; V 0.01,94.0092
same,Normalization of Response units,BclXL–LD3 interaction; V 0.1,99.7556
same,Response units,BclXL–LD3 interaction; V 0.1,93.1418
same,Normalization of Response units,BclXL–LD3 interaction; V 1,98.8448
same,Response units,BclXL–LD3 interaction; V 1,92.2914
same,Normalization of Response units,BclXL–LD3 interaction; V 10,97.5083
same,Response units,BclXL–LD3 interaction; V 10,91.0435
same,Normalization of Response units,BclXL–LD3 interaction; V 100,89.9423
same,Response units,BclXL–LD3 interaction; V 100,83.9791
same,Normalization of Response units,BclXL–LD3 interaction; V 1000,81.529
same,Response units,BclXL–LD3 interaction; V 1000,76.1236
same,Normalization of Response units,BclXL–LD3 interaction; V 10000,74.8321
same,Response units,BclXL–LD3 interaction; V 10000,69.8707
same,effect on the BclXL–LD3 interaction,BclXL–LD3 interaction; SPR drug competition,not affecting
same,Normalization of Response units,Bcl2–LD3 interaction; V 0.01,100.745
same,Response units,Bcl2–LD3 interaction; V 0.01,7.1398
same,Normalization of Response units,Bcl2–LD3 interaction; V 0.1,100.312
same,Response units,Bcl2–LD3 interaction; V 0.1,7.1091
same,Normalization of Response units,Bcl2–LD3 interaction; V 1,96.9409
same,Response units,Bcl2–LD3 interaction; V 1,6.8702
same,Normalization of Response units,Bcl2–LD3 interaction; V 10,93.6659
same,Response units,Bcl2–LD3 interaction; V 10,6.6381
same,Normalization of Response units,Bcl2–LD3 interaction; V 100,74.5943
same,Response units,Bcl2–LD3 interaction; V 100,5.2865
same,Normalization of Response units,Bcl2–LD3 interaction; V 1000,57.566
same,Response units,Bcl2–LD3 interaction; V 1000,4.0797
same,Normalization of Response units,Bcl2–LD3 interaction; V 10000,38.8006
same,Response units,Bcl2–LD3 interaction; V 10000,2.7498
same,SEAP (U/L),"[1]; Independent repeat, Venetoclax 0.001 nM",294.62 U/L and 313.4 U/L and 319.588 U/L
same,SEAP (U/L),"[1]; Independent repeat, Venetoclax 0.01 nM",267.156 U/L and 307.848 U/L and 300.966 U/L
same,SEAP (U/L),"[1]; Independent repeat, Venetoclax 0.1 nM",225.991 U/L and 258.444 U/L and 342.296 U/L
same,SEAP (U/L),"[1]; Independent repeat, Venetoclax 1 nM",259.474 U/L and 200.825 U/L and 300.367 U/L
same,SEAP (U/L),"[1]; Independent repeat, Venetoclax 10 nM",304.021 U/L and 256.34 U/L and 345.499 U/L
same,SEAP (U/L),"[1]; Independent repeat, Venetoclax 31.6 nM",220.194 U/L and 208.431 U/L and 268.11 U/L
same,SEAP (U/L),"[1]; Independent repeat, Venetoclax 100 nM",193.21 U/L and 194.937 U/L and 240.35 U/L
same,SEAP (U/L),"[1]; Independent repeat, Venetoclax 316 nM",87.2098 U/L and 106.113 U/L and 133.634 U/L
same,SEAP (U/L),"[1]; Independent repeat, Venetoclax 1000 nM",44.9721 U/L and 57.2365 U/L and 51.9722 U/L
same,SEAP (U/L),"[1]; Representative, Venetoclax 0.001 nM",75.3746 U/L and 89.0712 U/L and 99.0049 U/L
same,SEAP (U/L),"[1]; Representative, Venetoclax 0.01 nM",85.1657 U/L and 70.1122 U/L and 89.4923 U/L
same,SEAP (U/L),"[1]; Representative, Venetoclax 0.1 nM",81.9771 U/L and 80.9297 U/L and 78.2538 U/L
same,SEAP (U/L),"[1]; Representative, Venetoclax 1 nM",69.1909 U/L and 65.9454 U/L and 68.5076 U/L
same,SEAP (U/L),"[1]; Representative, Venetoclax 10 nM",45.3899 U/L and 45.448 U/L and 63.5072 U/L
same,SEAP (U/L),"[1]; Representative, Venetoclax 31.6 nM",23.8212 U/L and 28.0484 U/L and 21.6764 U/L
same,SEAP (U/L),"[1]; Representative, Venetoclax 100 nM",11.359 U/L and 10.3713 U/L and 12.1034 U/L
same,SEAP (U/L),"[1]; Representative, Venetoclax 316 nM",9.4797 U/L and 7.067 U/L and 8.943 U/L
same,SEAP (U/L),"[1]; Representative, Venetoclax 1000 nM",8.365 U/L and 6.996 U/L and 8.215 U/L
same,shut-down of reporter gene expression,[1]; adding 1 µM venetoclax to 100 nM A-1155463,effectively shut down
same,increase in the ON phase,[2],close to tenfold
same,affinity for Bcl2 stronger than for BclXL,Bcl2,500 fold
